Source: patent US10898510B2, “Sulphated hyaluronic acids functionalised with dopamine” (priority 2016, dated 2021)

System: Staphylococcus aureus
Test: In vitro inhibition of S. aureus bacterial growth, titanium cylinder functionalized with HAS2-DOPA or HA-DOPA and Gentamicin
Assay type: cell-based
Conditions: Daptomycin at the same concentrations instead of Gentamicin
Method: The following were prepared:
a solution of HA-DOPA (23%, Example 12) in 0.1 M PBS, pH=8; […]
Identical treatment was applied to the other two titanium cylinders, of equal size, which were sprayed first with the HA-DOPA derivative solution and then with the Gentamicin solution, by the procedures described above.
Finally, two other titanium cylinders, of identical size, were sprayed with the PBS solution and then with the Gentamicin solution, by the procedures described above.
Each cylinder (total: 6) was then immersed once in MQ water for 5 seconds, left to air-dry for 15 minutes and inserted in a culture broth (Buffered Peptone Water: peptone 10.0 g/L, sodium chloride 5.0 g/L, anhydrous disodium phosphate 3.6 g/L, potassium phosphate 1.5 g/L, Biokar Diagnostics) inoculated with 600,000,000 CFU/mL of Staphylococcus aureus. The broth was incubated at 37° C., and at pre-set times (6 h, 12 h, 24 h, 48 h, 144 h) 1 mL of supernatant was taken up and diluted scalarly 1:10 (according to the bacterial growth), with sterile saline solution, for plate seeding (PCA—Plate Count Agar: tryptone 5.0 g/L, yeast extract 2.5 g/L, glucose 1.0 g/L, bacteriological agar 12.0 g/L. Manufactured by Biokar Diagnostics). The CFU/mL count was then conducted.
The percentage bacterial growth inhibition data over time compared with the initial inoculum of 600 million CFU/mL of S. aureus are set out in FIG. 4.

CCCCCCCCCC(=O)N[C@@H](Cc1c[nH]c2ccccc12)C(=O)N[C@H](CC(N)=O)C(=O)N[C@@H](CC(=O)O)C(=O)N[C@@H]1C(=O)NCC(=O)N[C@@H](CCCN)C(=O)N[C@@H](CC(=O)O)C(=O)N[C@H](C)C(=O)N[C@@H](CC(=O)O)C(=O)NCC(=O)N[C@H](CO)C(=O)N[C@@H]([C@H](C)CC(=O)O)C(=O)N[C@@H](CC(=O)c2ccccc2N)C(=O)O[C@@H]1C [Daptomycin]
activity profile in similar experiment with Daptomycin: identical activity profile
